Like-named read-outs stand apart in the source and are kept apart here.
How the values were obtained:
Assay in all cases: biochemical
Set-up in all cases: Reaction Biology 371-kinase panel at Km ATP, per cent enzyme activity relative to DMSO, single dose in duplicate
CK2a2 = target: T1, CK2a2 (Homo sapiens, UniProt P19784); conditions: duplicate measurements, Km ATP
T1 construct: gene CSNK2A2
Procedure, shortened: (§1)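 Compound screened at 300 nM in vitro across a 371-kinase panel. Enzyme activity expressed as % of DMSO controls. IC50 values came from sigmoidal variable-slope dose-response fits with the bottom fixed at 0.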

MLK3/MAP3K11 = MLK3/MAP3K11 (Homo sapiens, UniProt Q16584); conditions: duplicate measurements, Km ATP
Chain of MLK3/MAP3K11 (Q16584 whole entry): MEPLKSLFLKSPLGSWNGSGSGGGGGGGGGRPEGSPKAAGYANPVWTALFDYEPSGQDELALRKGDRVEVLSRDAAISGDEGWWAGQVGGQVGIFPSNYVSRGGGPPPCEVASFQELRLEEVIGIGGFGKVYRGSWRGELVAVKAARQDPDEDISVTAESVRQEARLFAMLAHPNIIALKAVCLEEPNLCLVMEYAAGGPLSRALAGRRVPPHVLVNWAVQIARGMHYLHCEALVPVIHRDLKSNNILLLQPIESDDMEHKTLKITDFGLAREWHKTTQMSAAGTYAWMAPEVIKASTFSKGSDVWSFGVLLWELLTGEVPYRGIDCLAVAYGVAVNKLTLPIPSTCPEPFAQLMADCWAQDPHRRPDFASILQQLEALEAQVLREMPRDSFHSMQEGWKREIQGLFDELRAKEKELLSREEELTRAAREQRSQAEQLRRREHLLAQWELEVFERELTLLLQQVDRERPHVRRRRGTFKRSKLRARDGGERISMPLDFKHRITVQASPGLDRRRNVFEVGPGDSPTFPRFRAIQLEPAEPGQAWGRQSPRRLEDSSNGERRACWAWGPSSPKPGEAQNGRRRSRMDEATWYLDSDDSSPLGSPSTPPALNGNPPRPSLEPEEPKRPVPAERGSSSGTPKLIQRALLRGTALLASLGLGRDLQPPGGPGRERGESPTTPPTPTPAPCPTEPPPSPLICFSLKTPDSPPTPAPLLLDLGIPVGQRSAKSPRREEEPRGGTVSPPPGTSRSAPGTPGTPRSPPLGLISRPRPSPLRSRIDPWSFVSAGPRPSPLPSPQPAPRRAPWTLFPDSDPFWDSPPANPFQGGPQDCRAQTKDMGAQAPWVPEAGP
Procedure, shortened: as §1

LYN = LYN (Homo sapiens, UniProt P07948); conditions: duplicate measurements, Km ATP
Procedure, shortened: as §1

ERBB4/HER4 = ERBB4/HER4 (Homo sapiens, UniProt Q15303); conditions: duplicate measurements, Km ATP
Chain of ERBB4/HER4 (Q15303 whole entry): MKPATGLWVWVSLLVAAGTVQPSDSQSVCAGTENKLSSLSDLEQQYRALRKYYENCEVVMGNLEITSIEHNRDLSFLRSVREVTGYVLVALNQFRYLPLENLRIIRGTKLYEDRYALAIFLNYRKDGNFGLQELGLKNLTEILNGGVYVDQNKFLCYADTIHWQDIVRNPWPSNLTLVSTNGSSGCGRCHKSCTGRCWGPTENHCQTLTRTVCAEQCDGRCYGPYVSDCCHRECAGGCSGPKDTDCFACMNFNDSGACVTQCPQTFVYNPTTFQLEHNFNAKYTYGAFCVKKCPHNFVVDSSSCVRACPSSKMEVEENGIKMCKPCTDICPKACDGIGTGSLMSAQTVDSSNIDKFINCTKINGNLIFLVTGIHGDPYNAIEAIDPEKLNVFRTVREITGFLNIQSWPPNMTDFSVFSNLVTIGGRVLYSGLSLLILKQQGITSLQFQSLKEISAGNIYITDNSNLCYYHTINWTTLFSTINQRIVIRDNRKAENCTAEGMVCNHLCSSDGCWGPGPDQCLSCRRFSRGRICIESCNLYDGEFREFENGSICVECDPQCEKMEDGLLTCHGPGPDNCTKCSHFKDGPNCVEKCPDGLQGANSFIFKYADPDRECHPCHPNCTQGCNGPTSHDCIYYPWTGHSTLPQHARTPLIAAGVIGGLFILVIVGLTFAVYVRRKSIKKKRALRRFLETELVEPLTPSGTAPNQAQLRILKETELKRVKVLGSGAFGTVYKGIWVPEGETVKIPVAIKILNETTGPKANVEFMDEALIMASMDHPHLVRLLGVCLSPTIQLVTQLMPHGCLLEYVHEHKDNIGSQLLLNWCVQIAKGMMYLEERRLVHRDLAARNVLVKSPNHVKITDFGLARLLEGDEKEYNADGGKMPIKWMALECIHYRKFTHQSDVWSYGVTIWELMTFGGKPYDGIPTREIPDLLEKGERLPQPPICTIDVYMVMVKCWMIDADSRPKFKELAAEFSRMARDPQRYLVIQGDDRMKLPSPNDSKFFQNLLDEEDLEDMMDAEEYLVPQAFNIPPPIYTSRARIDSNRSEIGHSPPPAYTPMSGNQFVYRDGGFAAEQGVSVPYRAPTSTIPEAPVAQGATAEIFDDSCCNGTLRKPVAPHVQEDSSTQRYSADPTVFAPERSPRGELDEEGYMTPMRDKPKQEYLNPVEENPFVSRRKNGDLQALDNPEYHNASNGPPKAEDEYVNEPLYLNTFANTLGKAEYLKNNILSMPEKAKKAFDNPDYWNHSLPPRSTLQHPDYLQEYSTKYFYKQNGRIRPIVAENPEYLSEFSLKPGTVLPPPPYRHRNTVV
Procedure, shortened: as §1

FLT4/VEGFR3 = FLT4/VEGFR3 (Homo sapiens, UniProt P35916); conditions: duplicate measurements, Km ATP
Chain of FLT4/VEGFR3 (P35916 whole entry): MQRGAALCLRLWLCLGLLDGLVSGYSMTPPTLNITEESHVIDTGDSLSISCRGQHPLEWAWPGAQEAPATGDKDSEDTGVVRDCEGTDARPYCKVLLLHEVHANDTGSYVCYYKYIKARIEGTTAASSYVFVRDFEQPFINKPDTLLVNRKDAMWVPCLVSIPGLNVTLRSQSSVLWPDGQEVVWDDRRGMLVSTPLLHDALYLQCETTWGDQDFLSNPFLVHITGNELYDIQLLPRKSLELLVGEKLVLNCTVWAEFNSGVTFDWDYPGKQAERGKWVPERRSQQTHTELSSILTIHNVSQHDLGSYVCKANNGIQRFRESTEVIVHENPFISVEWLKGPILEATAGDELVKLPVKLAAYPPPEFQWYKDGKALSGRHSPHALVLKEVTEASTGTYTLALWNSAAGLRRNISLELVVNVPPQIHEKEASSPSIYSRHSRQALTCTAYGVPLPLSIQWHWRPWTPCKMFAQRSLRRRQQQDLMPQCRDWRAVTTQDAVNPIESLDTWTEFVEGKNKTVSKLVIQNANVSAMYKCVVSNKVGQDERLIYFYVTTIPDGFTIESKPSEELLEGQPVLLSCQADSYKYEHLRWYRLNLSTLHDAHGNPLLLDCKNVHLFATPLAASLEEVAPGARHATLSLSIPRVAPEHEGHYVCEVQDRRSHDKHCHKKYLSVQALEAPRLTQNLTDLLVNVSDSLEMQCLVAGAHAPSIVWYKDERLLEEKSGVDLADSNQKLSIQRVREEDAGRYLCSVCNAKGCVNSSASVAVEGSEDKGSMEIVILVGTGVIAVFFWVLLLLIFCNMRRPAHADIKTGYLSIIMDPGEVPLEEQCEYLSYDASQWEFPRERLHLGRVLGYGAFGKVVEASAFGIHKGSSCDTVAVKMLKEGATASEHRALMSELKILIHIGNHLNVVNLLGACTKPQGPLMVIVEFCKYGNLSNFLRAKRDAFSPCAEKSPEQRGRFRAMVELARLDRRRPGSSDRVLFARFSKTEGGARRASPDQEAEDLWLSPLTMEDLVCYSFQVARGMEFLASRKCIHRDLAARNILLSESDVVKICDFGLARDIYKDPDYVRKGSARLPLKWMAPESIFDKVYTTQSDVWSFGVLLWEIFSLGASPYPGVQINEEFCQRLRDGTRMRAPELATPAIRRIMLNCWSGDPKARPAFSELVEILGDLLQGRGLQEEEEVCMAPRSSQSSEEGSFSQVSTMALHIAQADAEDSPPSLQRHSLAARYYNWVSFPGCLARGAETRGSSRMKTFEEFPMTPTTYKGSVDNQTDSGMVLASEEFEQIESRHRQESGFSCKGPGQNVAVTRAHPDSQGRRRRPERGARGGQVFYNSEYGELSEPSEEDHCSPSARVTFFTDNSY
Procedure, shortened: as §1

KSR2 = KSR2 (Homo sapiens, UniProt Q6VAB6); conditions: duplicate measurements, Km ATP
Procedure, shortened: as §1

CAMK2d = CAMK2d (Homo sapiens, UniProt Q13557); conditions: duplicate measurements, Km ATP
Procedure, shortened: as §1

DAPK1 = DAPK1 (Homo sapiens, UniProt P53355); conditions: duplicate measurements, Km ATP
Procedure, shortened: as §1

EPHA4 = EPHA4 (Homo sapiens, UniProt P54764); conditions: duplicate measurements, Km ATP
Procedure, shortened: as §1

DMPK2 = target: T2, DMPK2 (Homo sapiens, UniProt Q6DT37); conditions: duplicate measurements, Km ATP; read-out: % Enzyme Activity (relative to DMSO controls) / TP-0005801 (0.3µM) / Data 1
T2 construct: gene CDC42BPG
Procedure, shortened: as §1

IKKb/IKBKB = IKKb/IKBKB (Homo sapiens, UniProt O14920); conditions: duplicate measurements, Km ATP
Chain of IKKb/IKBKB (O14920 whole entry): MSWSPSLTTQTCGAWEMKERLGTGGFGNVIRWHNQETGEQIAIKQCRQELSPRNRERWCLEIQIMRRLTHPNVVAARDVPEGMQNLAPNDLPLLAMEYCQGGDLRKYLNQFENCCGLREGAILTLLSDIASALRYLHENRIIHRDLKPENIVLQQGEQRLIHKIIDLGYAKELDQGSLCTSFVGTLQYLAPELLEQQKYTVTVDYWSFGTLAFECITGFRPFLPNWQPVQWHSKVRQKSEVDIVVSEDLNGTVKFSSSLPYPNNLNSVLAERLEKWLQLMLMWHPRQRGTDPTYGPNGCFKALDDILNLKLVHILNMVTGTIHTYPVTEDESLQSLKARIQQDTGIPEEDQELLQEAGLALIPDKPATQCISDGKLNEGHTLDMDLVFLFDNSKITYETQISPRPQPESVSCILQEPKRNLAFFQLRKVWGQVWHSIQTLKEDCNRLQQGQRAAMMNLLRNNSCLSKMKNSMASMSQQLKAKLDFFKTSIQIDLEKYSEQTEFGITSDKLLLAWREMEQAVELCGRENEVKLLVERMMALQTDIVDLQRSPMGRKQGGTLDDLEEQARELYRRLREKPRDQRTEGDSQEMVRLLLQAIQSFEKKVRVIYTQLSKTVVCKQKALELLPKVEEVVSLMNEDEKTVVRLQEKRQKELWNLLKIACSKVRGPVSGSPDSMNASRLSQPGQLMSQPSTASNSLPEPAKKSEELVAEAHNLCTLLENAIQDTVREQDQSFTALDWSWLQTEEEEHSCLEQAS
Procedure, shortened: as §1

ERK2/MAPK1 = ERK2/MAPK1 (Homo sapiens, UniProt P28482); conditions: duplicate measurements, Km ATP
Procedure, shortened: as §1

RSK2 = target: T3, RSK2 (Homo sapiens, UniProt P51812); conditions: duplicate measurements, Km ATP
T3 construct: gene RPS6KA3
Procedure, shortened: as §1

SLK/STK2 = SLK/STK2 (Homo sapiens, UniProt Q9H2G2); conditions: duplicate measurements, Km ATP
Procedure, shortened: as §1

CDK4/cyclin D1 = CDK4/cyclin D1 (Homo sapiens, UniProt P11802); conditions: duplicate measurements, Km ATP
Procedure, shortened: as §1

PKAcb = target: T4, PKAcb (Homo sapiens, UniProt P22694); conditions: duplicate measurements, Km ATP
T4 construct: gene PRKACB
Procedure, shortened: as §1

PKCb2 = target: T5, PKCb2 (Homo sapiens, UniProt P05771); conditions: duplicate measurements, Km ATP
T5 construct: gene PRKCB; isoform beta II
Procedure, shortened: as §1

JAK2 = JAK2 (Homo sapiens, UniProt O60674); conditions: duplicate measurements, Km ATP
Procedure, shortened: as §1

PAK6 = PAK6 (Homo sapiens, UniProt Q9NQU5); conditions: duplicate measurements, Km ATP
Procedure, shortened: as §1

SNRK = SNRK (Homo sapiens, UniProt Q9NRH2); conditions: duplicate measurements, Km ATP
Chain of SNRK (Q9NRH2 whole entry): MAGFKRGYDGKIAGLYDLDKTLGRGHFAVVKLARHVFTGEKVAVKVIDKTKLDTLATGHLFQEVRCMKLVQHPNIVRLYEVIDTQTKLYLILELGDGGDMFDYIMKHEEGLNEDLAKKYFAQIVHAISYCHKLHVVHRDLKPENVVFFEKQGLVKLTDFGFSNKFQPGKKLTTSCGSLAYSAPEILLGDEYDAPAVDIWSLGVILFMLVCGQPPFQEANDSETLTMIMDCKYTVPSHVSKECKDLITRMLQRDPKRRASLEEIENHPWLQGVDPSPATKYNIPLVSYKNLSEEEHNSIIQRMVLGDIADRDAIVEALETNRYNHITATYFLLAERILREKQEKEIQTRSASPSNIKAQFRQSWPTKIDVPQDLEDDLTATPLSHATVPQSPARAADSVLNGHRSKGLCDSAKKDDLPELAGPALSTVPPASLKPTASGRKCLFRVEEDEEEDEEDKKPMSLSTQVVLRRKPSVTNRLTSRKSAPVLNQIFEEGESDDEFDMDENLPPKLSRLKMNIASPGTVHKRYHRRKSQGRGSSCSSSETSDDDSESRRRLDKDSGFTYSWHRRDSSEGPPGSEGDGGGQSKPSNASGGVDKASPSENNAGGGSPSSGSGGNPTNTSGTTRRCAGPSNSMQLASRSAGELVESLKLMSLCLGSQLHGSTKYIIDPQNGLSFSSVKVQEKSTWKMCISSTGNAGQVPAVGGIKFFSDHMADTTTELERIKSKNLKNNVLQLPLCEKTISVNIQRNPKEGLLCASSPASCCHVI
Procedure, shortened: as §1

[1] = read-out: % Enzyme Activity (relative to DMSO controls) / TP-0005801 (0.3µM) / Data 1
[2] = read-out: % Enzyme Activity (relative to DMSO controls) / TP-0005801 (0.3µM) / Data 2

COc1cc(N2CCN(C)CC2)c(C)cc1Nc1ncc(Br)c(Nc2cccnc2N(C)C)n1 [TP-5801]
remaining activity at 0.3 µM (CK2a2; [1]): 107%
remaining activity at 0.3 µM (CK2a2; [2]): 89.1%
remaining activity at 0.3 µM (MLK3/MAP3K11; [1]): 89.5%
remaining activity at 0.3 µM (MLK3/MAP3K11; [2]): 89.3%
remaining activity at 0.3 µM (LYN; [1]): 70.1%
remaining activity at 0.3 µM (LYN; [2]): 69.8%
remaining activity at 0.3 µM (ERBB4/HER4; [1]): 103%
remaining activity at 0.3 µM (ERBB4/HER4; [2]): 102%
remaining activity at 0.3 µM (FLT4/VEGFR3; [1]): 35.2%
remaining activity at 0.3 µM (FLT4/VEGFR3; [2]): 35.1%
remaining activity at 0.3 µM (KSR2; [1]): 96.9%
remaining activity at 0.3 µM (KSR2; [2]): 94.2%
remaining activity at 0.3 µM (CAMK2d; [1]): 4.74%
remaining activity at 0.3 µM (CAMK2d; [2]): 4.45%
remaining activity at 0.3 µM (DAPK1; [1]): 102%
remaining activity at 0.3 µM (DAPK1; [2]): 101%
remaining activity at 0.3 µM (EPHA4; [1]): 98.9%
remaining activity at 0.3 µM (EPHA4; [2]): 98.5%
remaining activity at 0.3 µM (DMPK2): 109%
remaining activity at 0.3 µM (IKKb/IKBKB; [1]): 104%
remaining activity at 0.3 µM (IKKb/IKBKB; [2]): 102%
remaining activity at 0.3 µM (ERK2/MAPK1; [1]): 87.1%
remaining activity at 0.3 µM (ERK2/MAPK1; [2]): 86.1%
remaining activity at 0.3 µM (RSK2; [1]): 90.5%
remaining activity at 0.3 µM (RSK2; [2]): 84.9%
remaining activity at 0.3 µM (SLK/STK2; [1]): 55.6%
remaining activity at 0.3 µM (SLK/STK2; [2]): 48.5%
remaining activity at 0.3 µM (CDK4/cyclin D1; [1]): 106%
remaining activity at 0.3 µM (CDK4/cyclin D1; [2]): 104%
remaining activity at 0.3 µM (PKAcb; [1]): 98%
remaining activity at 0.3 µM (PKAcb; [2]): 96.7%
remaining activity at 0.3 µM (PKCb2; [1]): 94.4%
remaining activity at 0.3 µM (PKCb2; [2]): 93.6%
remaining activity at 0.3 µM (JAK2; [1]): 82.8%
remaining activity at 0.3 µM (JAK2; [2]): 77.7%
remaining activity at 0.3 µM (PAK6; [1]): 107%
remaining activity at 0.3 µM (PAK6; [2]): 105%
remaining activity at 0.3 µM (SNRK; [1]): 98.8%
remaining activity at 0.3 µM (SNRK; [2]): 98.6%

— PMC8429728, “TNK1 is a ubiquitin-binding and 14-3-3-regulated kinase that can be targeted to block tumor growth” (Nature Communications, 2021)
